Data published in paper PMC4007060 (Journal of neuroimmune pharmacology : the official journal …, 2010).
“Also recorded” adds a separate entry of the source. Where two headings read alike, the source gives them in different places.

What was measured:
[1] = system: mouse spleen cells, antibody response to sheep red blood cells; details: morphine positive control; ref Rahim et al, 2001; cited from earlier work
ORL-1 [2] = details: in vitro; ref Knoflach et al, 1996; Reinscheid et al, 1995; cited from earlier work
ORL-1 [3] = details: in vivo; ref Chen et al, 2001; cited from earlier work
mouse spleen cells [4] = details: 2 hrs pretreatment, same PFC assay; ref Eisenstein et al, 1995; cited from earlier work
human monocytes = details: 10^−6 M naloxone; ref Trombella et al, 2005; cited from earlier work
[5] = system: C-1 A-APA (affinity-purified rabbit antiserum to N/OFQ); test: Solid-phase RIA, displacement of; assay type: binding; details: for cross-reactivity in RIA: competitive peptide 1 × 10^−6 M to 1.5 × 10^−12 M
[6] = system: C-4 A-APA (affinity-purified rabbit antiserum to N/OFQ); test: Solid-phase RIA, displacement of; assay type: binding; details: for cross-reactivity in RIA: competitive peptide 1 × 10^−6 M to 1.5 × 10^−12 M
C-1 A-APA = test: Dot-blot cross-reactivity, C-1 A-APA; assay type: binding, rabbit; details: membrane-spotted peptides
C-4 A-APA = test: Dot-blot cross-reactivity, C-4 A-APA; assay type: binding, rabbit; details: membrane-spotted peptides
mouse spleen cells [7] = test: Primary in vitro plaque-forming cell; assay type: cell-based, mouse (C3HeB/FeJ); details: primary PFC assay
[8] = system: mouse spleen cells, antibody response to sheep red blood cells; details: s.c. Alzet pump, 48 hr
[9] = system: Con A activated rat splenocytes; details: ref Miller and Fulford, 2007, cited from earlier work
human T cells = details: cited from earlier work
delta opioid receptor = details: ref Mollereau et al, 1994; Pan et al, 1995; cited from earlier work
mu opioid receptor = details: ref Mollereau et al, 1994; Pan et al, 1995; cited from earlier work
kappa opioid receptor = details: ref Mollereau et al, 1994; Pan et al, 1995; cited from earlier work
[10] = system: human monocytes and monocyte-like cell lines (CCL2/MCP-1, CCL5/RANTES); details: CCL2/MCP-1 and CCL5/RANTES; ref Kaminsky and Rogers, 2008; cited from earlier work
astrocyte cultures = details: lipopolysaccharide in vitro; ref Fu et al, 2007; cited from earlier work
astrocytes = details: peripheral administration of an inflammatory stimulus; ref Fu et al, 2007; cited from earlier work
[11] = system: mouse spleen (TNF-α and IFN-γ mRNA); details: in vivo; cited from earlier work
ORL-1 receptor = details: cited from earlier work

CN1CC[C@]23c4c5ccc(O)c4O[C@H]2[C@@H](O)C=C[C@H]3[C@H]1C5 [morphine]
dose producing maximal immunosuppression [1]: 0.5 mg/kg/day

C=CCN1CC[C@]23c4c5ccc(O)c4O[C@H]2C(=O)CC[C@@]3(O)[C@H]1C5 [naloxone]
naloxone sensitivity of ORL-1 activity (ORL-1 [2]): naloxone insensitive | naloxone sensitivity of ORL-1 activity (ORL-1 [3]): naloxone insensitive | block of immunosuppressive effect of morphine and U50488 (mouse spleen cells [4]): completely blocked the immunosuppressive effect of morphine and of the kappa agonist, U50488 | effect of naloxone on chemotaxis induced by the peptide (human monocytes): did not block human monocyte chemotaxis

BAM-18
cross-reactivity in RIA [5]: no significant cross-reactivity; also recorded: No significant cross-reactivities were detected | cross-reactivity in RIA [6]: did not show significant cross-reactivity; also recorded: No significant cross-reactivities were detected | dot-blot reactivity (C-1 A-APA): not to classical opioid | dot-blot reactivity (C-4 A-APA): not to classical opioid

Dynorphin A1-17
cross-reactivity in RIA [5]: no significant cross-reactivity | cross-reactivity in RIA ([5]; listed as Dynorphin A1-17): No significant cross-reactivities were detected | cross-reactivity in RIA [6]: did not show significant cross-reactivity | cross-reactivity in RIA ([6]; listed as Dynorphin A1-17): No significant cross-reactivities were detected

Tyr-Gly-Gly-Gly-Met [Met-enkephalin, Met-Enkephalin]
dot-blot reactivity (C-1 A-APA): not to classical opioid | dot-blot reactivity (C-4 A-APA): not to classical opioid

Tyr-Gly-Gly-Phe-Leu [Leu-enkephalin, Leu-Enkephalin]
cross-reactivity in RIA [5]: no significant cross-reactivity | cross-reactivity in RIA ([5]; listed as Leu-Enkephalin): No significant cross-reactivities were detected | cross-reactivity in RIA [6]: did not show significant cross-reactivity | cross-reactivity in RIA ([6]; listed as Leu-Enkephalin): No significant cross-reactivities were detected | dot-blot reactivity (C-1 A-APA): not to classical opioid | dot-blot reactivity (C-4 A-APA): not to classical opioid

nociceptin/orphanin FQ [N/OFQ]
suppression of antibody formation (mouse spleen cells [7]): suppressed antibody formation to sheep red blood cells; also recorded: suppresses both the secondary and primary plaque-forming cell assay | IC80 ([5]; solid-phase RIA, C-1 A-APA): 2.9 nM | IC20 ([6]; read-out: smallest measurable displacement, IC20, solid-phase RIA, C-4 A-APA): 0.062 nM | IC80 ([6]; solid-phase RIA, C-4 A-APA): 0.71 nM | dot-blot reactivity (C-1 A-APA): showed reactivity to the three nociceptin peptides | dot-blot reactivity (C-4 A-APA): showed reactivity to the three nociceptin peptides | dose of maximal immunosuppression [8]: 0.05 mg/kg/day | inhibition of proliferation ([9]; Con A activated rat splenocytes): inhibit the proliferation | inhibition of IL-2 production ([9]; in vitro): inhibit the proliferation of Con A activated rat splenocytes, as well as the production of IL-2 | CD28 expression (human T cells): up-regulated expression of the co-stimulatory molecule CD28 | CTLA-4 expression (human T cells): upregulate CTLA-4 | PGE2 induction (human T cells): induced PGE2 | proliferation (human T cells): increased proliferation | binding (delta opioid receptor): does not bind | binding (mu opioid receptor): does not bind | binding (kappa opioid receptor): does not bind | chemokine production [10]: suppress the production of chemokine proteins | mRNA for TNF-α, IL-1β, and IL-6 (astrocyte cultures): decrease expression of mRNA | mRNA for TNF-α, IL-1β, and IL-6 (astrocytes): decrease expression of mRNA | mRNA for TNF-α and IFN-γ in spleens [11]: increased levels of mRNA | forskolin-induced cAMP accumulation (ORL-1 receptor): inhibition of forskolin-induced cAMP accumulation
